Like-named read-outs stand apart in the source and are kept apart here.
Columns and labels:
Format in all cases: biochemical
recombinant human PREP = biological target: T1, recombinant human PREP (Homo sapiens, UniProt P48147); assay: PREP inhibition, fluorogenic substrate Z-Gly-Pro-AMC; settings: Inhibitory Activity (IC50, nM) PREP, 25° C., Z-Gly-Pro-AMC substrate
T1 construct: purchased R&D System
T1 sequence (P48147 1-710): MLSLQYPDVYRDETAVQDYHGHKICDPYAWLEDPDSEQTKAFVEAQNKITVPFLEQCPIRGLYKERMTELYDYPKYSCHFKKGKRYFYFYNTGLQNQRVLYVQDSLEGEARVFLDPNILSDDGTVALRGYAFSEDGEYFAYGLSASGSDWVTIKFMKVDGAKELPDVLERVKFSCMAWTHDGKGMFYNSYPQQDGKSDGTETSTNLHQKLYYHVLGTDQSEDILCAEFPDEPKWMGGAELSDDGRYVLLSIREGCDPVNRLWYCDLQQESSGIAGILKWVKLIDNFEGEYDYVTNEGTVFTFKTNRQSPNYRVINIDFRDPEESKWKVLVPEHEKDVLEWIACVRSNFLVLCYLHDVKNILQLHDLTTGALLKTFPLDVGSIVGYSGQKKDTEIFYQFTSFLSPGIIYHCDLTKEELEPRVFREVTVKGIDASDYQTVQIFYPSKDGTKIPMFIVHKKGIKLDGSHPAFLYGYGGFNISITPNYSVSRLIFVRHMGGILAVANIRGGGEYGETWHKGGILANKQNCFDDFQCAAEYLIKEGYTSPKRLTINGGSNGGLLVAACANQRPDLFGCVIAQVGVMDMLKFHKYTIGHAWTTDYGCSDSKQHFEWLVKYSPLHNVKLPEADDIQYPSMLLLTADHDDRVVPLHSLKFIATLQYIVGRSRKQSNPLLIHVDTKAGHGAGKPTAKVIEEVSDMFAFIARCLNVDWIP
Procedure, shortened: (§1)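 Inhibitors are titrated in an 8-point series into the enzyme's assay buffer (DMSO no more than 0.5%). Substrate cleavage at 25 °C is followed by fluorescence, excitation 380 nm and emission 460 nm. IC50 values come from a four-variable logistic model.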

recombinant human DPP8 = biological target: T2, recombinant human DPP8 (Homo sapiens, UniProt Q6V1X1); assay: DPP8 inhibition, fluorogenic substrate Z-Ala-Pro-AMC
T2 construct: purchased PBS Bioscience
T2 sequence (Q6V1X1 whole entry): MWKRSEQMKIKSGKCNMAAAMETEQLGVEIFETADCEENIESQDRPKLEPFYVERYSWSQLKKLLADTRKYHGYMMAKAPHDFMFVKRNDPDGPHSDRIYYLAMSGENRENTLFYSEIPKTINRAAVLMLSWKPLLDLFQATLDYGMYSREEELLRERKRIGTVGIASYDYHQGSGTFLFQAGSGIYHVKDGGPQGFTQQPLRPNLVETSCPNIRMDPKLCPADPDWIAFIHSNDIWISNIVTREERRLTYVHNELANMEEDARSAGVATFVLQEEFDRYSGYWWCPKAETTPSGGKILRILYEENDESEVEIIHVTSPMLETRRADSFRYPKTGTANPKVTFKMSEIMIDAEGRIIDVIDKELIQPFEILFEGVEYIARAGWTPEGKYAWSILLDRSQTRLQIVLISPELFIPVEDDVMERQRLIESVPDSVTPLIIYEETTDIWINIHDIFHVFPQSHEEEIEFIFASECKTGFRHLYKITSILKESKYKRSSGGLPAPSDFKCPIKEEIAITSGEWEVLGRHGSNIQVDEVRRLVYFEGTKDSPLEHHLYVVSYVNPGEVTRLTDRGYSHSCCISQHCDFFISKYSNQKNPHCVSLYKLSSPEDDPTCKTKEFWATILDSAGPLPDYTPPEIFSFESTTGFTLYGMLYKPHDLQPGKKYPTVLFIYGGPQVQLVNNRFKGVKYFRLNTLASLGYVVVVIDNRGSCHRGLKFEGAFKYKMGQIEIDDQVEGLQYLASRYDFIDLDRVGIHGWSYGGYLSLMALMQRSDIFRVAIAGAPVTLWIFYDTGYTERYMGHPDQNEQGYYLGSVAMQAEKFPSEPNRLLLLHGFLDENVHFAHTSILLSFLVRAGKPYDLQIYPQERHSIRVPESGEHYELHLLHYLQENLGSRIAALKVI
Method: The compounds according to the present technology were evaluated in terms of the inhibitory effect on the activity of dipeptidyl peptidases including FAP by using a substrate producing fluorescent substances upon enzymatic decomposition. The test was conducted at 25° C. to get a final reaction volume of 100 μL in a 96 black well plate. […] Briefly, the test compounds were dissolved in dimethyl sulfoxide (DMSO) at a concentration of 20 mM and then subjected to serial dilution, thereby creating an 8 point curve. As for the control group, a 6 point curve created by serial dilution of Talabostat in the same buffer solution was used. Fluorescence intensity was measured using a microplate reader (Flexstation3, Molecular Devices) under the wavelength condition exciting at 380 nm and reading the emission at 460 nm. The inhibitory effect of the test compounds was measured as a decrease (%) in the signal rate as compared to the control group without any inhibitor. Data was fixed to a logistic model with four variables and IC50 value was calculated using GraphPad Prism program. As for recombinant human DPP4 (R&D Systems), 25 mM tris (pH 8.0) buffer as a buffer solution and H-Gly-Pro-AMC (Bachem) as a substrate were used. As for recombinant human DPP7 (R&D Systems), 25 mM MES (pH 6.0) buffer as a buffer solution and Lys-Pro-AMC (Bachem) as a substrate were used. As for recombinant human DPP8 (PBS Bioscience), as a buffer solution, a 10 mM tris (pH 7.4) buffer comprising 10 mM of magnesium chloride and 0.05% of Tween 20, and Z-Ala-Pro-AMC (BPS Bioscience) as a substrate were used. As for recombinant human DPP9 (R&D Systems), a 25 mM tris (pH 8.0) buffer as a buffer solution and H-Gly-Pro-AMC (Bachem) as a substrate were used. As for recombinant human PREP (R&D System), as a buffer solution, a 25 mM tris (pH 7.5) buffer comprising 250 mM sodium chloride and 2.5 mM DTT (Dithiolthreitol), and Z-Gly-Pro-AMC (Bachem) as a substrate were used. The evaluation was made by using 10 ng of DPP4, PDD7, and PREP, 20 ng of DPP8, and 50 ng of DPP9 based on the final reaction. In the evaluation of DPP4, the test compounds were subjected to serial dilution in a buffer under the condition containing up to 0.1% of DMSO. In the evaluation of DPP7, DPP8, DPP9, and PREP, the test compounds were subjected to serial dilution in each buffer under the condition containing up to 0.5% of DMSO.

recombinant human DPP7 = biological target: T3, recombinant human DPP7 (Homo sapiens, UniProt Q9UHL4); assay: DPP7 inhibition, fluorogenic substrate Lys-Pro-AMC
T3 construct: purchased R&D Systems
Procedure, shortened: as §1

Recombinant human FAP = biological target: T4, Recombinant human FAP (Homo sapiens, UniProt Q12884); assay: FAP inhibition, fluorogenic substrate Z-Gly-Pro-AMC
T4 construct: purchased R&D systems
T4 sequence (Q12884 1-760): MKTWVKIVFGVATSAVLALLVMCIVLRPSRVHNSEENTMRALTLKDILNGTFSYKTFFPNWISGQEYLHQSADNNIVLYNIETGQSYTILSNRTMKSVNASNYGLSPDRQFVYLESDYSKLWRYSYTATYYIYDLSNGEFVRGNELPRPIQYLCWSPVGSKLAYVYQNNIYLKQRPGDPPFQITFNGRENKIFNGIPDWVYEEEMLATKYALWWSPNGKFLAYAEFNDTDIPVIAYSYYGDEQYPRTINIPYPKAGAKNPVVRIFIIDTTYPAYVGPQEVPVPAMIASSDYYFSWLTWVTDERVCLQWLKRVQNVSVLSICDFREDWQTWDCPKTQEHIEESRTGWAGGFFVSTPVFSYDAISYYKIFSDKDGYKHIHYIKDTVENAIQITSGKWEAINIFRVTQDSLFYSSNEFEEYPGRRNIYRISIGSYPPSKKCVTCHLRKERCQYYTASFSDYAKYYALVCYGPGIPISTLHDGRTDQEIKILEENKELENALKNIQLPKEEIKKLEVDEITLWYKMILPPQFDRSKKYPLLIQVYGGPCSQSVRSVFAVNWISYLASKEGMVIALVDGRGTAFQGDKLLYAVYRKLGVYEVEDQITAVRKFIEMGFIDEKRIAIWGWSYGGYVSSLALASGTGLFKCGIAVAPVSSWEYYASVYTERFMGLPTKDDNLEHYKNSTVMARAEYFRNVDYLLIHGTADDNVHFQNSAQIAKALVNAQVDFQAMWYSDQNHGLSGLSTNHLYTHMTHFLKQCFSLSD
Procedure, shortened: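 Eight-point compound dilutions (≤0.1% DMSO) were incubated at 25° C with 10 ng recombinant human FAP in Tris pH 7.5/1 M NaCl/BSA buffer and Z-Gly-Pro-AMC. Inhibition was taken as % drop in fluorescence rate (380/460 nm) against uninhibited control; IC50 came from a four-parameter logistic fit.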

recombinant human DPP9 = biological target: T5, recombinant human DPP9 (Homo sapiens, UniProt Q86TI2); assay: DPP9 inhibition, fluorogenic substrate H-Gly-Pro-AMC
T5 construct: purchased R&D Systems
T5 sequence (Q86TI2 whole entry): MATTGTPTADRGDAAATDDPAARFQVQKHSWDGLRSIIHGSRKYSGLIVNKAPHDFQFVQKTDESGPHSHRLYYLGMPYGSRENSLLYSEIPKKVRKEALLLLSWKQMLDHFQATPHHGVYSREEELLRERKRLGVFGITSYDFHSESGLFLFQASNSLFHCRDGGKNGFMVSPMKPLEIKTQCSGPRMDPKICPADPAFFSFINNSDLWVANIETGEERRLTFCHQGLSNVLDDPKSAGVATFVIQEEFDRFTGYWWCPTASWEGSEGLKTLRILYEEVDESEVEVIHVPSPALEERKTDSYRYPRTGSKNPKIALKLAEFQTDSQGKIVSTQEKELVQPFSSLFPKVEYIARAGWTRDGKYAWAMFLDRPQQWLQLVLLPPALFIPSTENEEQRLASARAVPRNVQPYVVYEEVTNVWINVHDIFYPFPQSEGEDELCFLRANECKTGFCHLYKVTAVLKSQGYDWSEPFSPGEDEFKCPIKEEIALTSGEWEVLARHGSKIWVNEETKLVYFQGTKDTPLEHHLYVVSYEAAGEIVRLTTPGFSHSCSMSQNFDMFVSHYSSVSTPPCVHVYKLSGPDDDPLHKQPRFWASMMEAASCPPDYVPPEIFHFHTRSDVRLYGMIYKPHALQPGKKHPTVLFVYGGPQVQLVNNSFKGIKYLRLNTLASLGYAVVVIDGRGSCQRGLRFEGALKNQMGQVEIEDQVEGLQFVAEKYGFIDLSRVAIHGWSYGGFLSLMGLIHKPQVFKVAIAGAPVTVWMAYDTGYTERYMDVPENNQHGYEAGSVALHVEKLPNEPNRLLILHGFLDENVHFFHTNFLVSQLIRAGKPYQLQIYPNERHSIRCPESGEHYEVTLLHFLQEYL
Procedure, shortened: as §1

DPP4 = DPP4 (Homo sapiens, UniProt P27487); assay: DPP4 inhibition, fluorogenic substrate H-Gly-Pro-AMC; parameters: purchased R&D Systems; settings: recombinant human DPP4
Sequence of DPP4 (P27487 whole entry): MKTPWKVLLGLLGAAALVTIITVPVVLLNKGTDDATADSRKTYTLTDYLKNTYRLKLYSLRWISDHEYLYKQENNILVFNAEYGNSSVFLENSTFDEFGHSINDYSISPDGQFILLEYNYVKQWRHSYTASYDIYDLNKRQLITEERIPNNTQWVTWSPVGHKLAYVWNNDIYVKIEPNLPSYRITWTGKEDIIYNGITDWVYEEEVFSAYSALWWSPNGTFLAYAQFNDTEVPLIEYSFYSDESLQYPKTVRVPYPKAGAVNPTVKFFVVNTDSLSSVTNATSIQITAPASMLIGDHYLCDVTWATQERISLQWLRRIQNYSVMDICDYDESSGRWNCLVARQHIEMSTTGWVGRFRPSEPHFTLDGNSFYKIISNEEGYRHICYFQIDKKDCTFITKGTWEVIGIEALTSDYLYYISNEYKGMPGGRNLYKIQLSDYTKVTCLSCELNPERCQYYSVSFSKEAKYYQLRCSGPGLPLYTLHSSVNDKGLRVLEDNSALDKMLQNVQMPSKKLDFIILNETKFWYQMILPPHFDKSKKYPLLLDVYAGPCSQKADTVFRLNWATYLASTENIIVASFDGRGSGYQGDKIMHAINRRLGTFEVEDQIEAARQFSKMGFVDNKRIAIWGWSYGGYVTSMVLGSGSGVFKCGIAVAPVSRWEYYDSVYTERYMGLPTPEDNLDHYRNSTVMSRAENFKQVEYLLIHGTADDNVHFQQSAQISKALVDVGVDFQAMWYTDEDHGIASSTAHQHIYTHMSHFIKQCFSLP

[1] = 25° C., Z-Ala-Pro-AMC substrate
[2] = 25° C., Z-Gly-Pro-AMC substrate
[3] = 25° C., H-Gly-Pro-AMC substrate

SMILES	IC50 (recombinant human PREP) [nM]	IC50 (recombinant human DPP8; [1]) [µM]	IC50 (recombinant human DPP7) [µM]	IC50 (Recombinant human FAP; [2]) [µM]	IC50 (recombinant human DPP9; [3]) [µM]	IC50 (recombinant human DPP8; recombinant human DPP8) [µM]	IC50 (recombinant human DPP7; recombinant human DPP7) [µM]	IC50 (DPP4) [µM]	IC50 (Recombinant human FAP; recombinant human FAP, substrate Z-Gly-Pro-AMC) [µM]	IC50 (recombinant human DPP9; recombinant human DPP9) [µM]
CN(c1cnc2ccccc2c1)[C@@H]1CCN(CC(=O)N2CCC[C@H]2C#N)C1 [Example 138, (2S)-1-[2-[(3R)-3-[methyl(3-quinolyl)amino]pyrrolidin-1-yl]acetyl]pyrrolidine-2-carbonitrile]	7970	≥ 100	3.7	0.0248	≥ 100	–	–	–	–	–
CN(c1cccc2ncccc12)[C@@H]1CCN(CC(=O)N2CCC[C@H]2C#N)C1 [Example 139, (2S)-1-[2-[(3R)-3-[methyl(5-quinolyl)amino]pyrrolidin-1-yl]acetyl]pyrrolidine-2-carbonitrile]	5020	≥ 100	13	0.0167	89	–	–	–	–	–
CN(c1ccc2ncccc2c1)[C@@H]1CCN(CC(=O)N2CCC[C@H]2C#N)C1 [Example 140, (2S)-1-[2-[(3R)-3-[methyl(6-quinolyl)amino]pyrrolidin-1-yl]acetyl]pyrrolidine-2-carbonitrile]	4260	≥ 100	1.4	0.0157	32.6	–	–	–	–	–
CN(c1cnc2ccccc2c1)[C@H]1CCN(CC(=O)N2CCC[C@H]2C#N)C1 [Example 142, (2S)-1-[2-[(3S)-3-[methyl(3-quinolyl)amino]pyrrolidin-1-yl]acetyl]pyrrolidine-2-carbonitrile]	4510	≥ 100	4.99	0.0026	71	–	–	–	–	–
CN(c1cccc2ncccc12)[C@H]1CCN(CC(=O)N2CCC[C@H]2C#N)C1 [Example 144, (2S)-1-[2-[(3S)-3-[methyl(5-quinolyl)amino]pyrrolidin-1-yl]acetyl]pyrrolidine-2-carbonitrile]	3360	85	19.3	0.006	23.8	–	–	–	–	–
CN(c1ccc2ncccc2c1)[C@H]1CCN(CC(=O)N2CCC[C@H]2C#N)C1 [Example 145, (2S)-1-[2-[(3S)-3-[methyl(6-quinolyl)amino]pyrrolidin-1-yl]acetyl]pyrrolidine-2-carbonitrile]	2690	19.1	2.03	0.0027	16.8	–	–	–	–	–
CN(c1ccc2cccnc2c1)[C@H]1CCN(CC(=O)N2CCC[C@H]2C#N)C1 [Example 146, (2S)-1-[2-[(3S)-3-[methyl(7-quinolyl)amino]pyrrolidin-1-yl]acetyl]pyrrolidine-2-carbonitrile]	4590	≥ 100	0.916	0.0066	≥ 100	–	–	–	–	–
CN(c1cccc2cnccc12)[C@H]1CCN(CC(=O)N2CCC[C@H]2C#N)C1 [Example 148, (2S)-1-[2-[(3S)-3-[5-isoquinolyl(methyl)amino]pyrrolidin-1-yl]acetyl]pyrrolidine-2-carbonitrile]	3810	86.6	10.8	0.0073	29.3	–	–	–	–	–
Cc1c(N(C)[C@H]2CCN(CC(=O)N3CCC[C@H]3C#N)C2)cnc2ccccc12 [Example 149, (2S)-1-[2-[(3S)-3-[methyl-(4-methyl-3-quinolyl)amino]pyrrolidin-1-yl]acetyl]pyrrolidine-2-carbonitrile]	1620	≥ 100	3.97	0.0099	49.1	–	–	–	–	–

The remaining lines, values ahead:

IC50 (recombinant human PREP) [nM]	IC50 (recombinant human DPP8; [1]) [µM]	IC50 (recombinant human DPP7) [µM]	IC50 (Recombinant human FAP; [2]) [µM]	IC50 (recombinant human DPP9; [3]) [µM]	IC50 (recombinant human DPP8; recombinant human DPP8) [µM]	IC50 (recombinant human DPP7; recombinant human DPP7) [µM]	IC50 (DPP4) [µM]	IC50 (Recombinant human FAP; recombinant human FAP, substrate Z-Gly-Pro-AMC) [µM]	IC50 (recombinant human DPP9; recombinant human DPP9) [µM]	SMILES
2640	≥ 100	1.83	0.0011	39.6	–	–	–	–	–	Cc1ccc2ncc(N(C)[C@H]3CCN(CC(=O)N4CCC[C@H]4C#N)C3)cc2c1 [Example 150, (2S)-1-[2-[(3S)-3-[methyl-(6-methyl-3-quinolyl)amino]pyrrolidin-1-yl]acetyl]pyrrolidine-2-carbonitrile]
3090	12.3	2.55	0.0016	23.9	–	–	–	–	–	CN(c1cnc2ccc(F)cc2c1)[C@H]1CCN(CC(=O)N2CCC[C@H]2C#N)C1 [Example 151, (S)-1-(2-((S)-3-((6-fluoroquinolin-3-yl)(methyl)amino)pyrrolidin-1-yl)acetyl)pyrrolidine-2-carbonitrile]
4130	≥ 100	1.66	0.0025	29	–	–	–	–	–	COc1ccc2ncc(N(C)[C@H]3CCN(CC(=O)N4CCC[C@H]4C#N)C3)cc2c1 [Example 152, (S)-1-(2-((S)-3-((6-methoxyquinolin-3-yl)(methyl)amino)pyrrolidin-1-yl)acetyl)pyrrolidine-2-carbonitrile]
–	–	–	–	–	13.1	3.89	> 10	0.0023	48.9	COc1ccc2nc(C)cc(OC3CCN(CC(=O)N4C[C@@H](F)C[C@H]4C#N)CC3)c2c1 [Example 424, (2S,4S)-4-fluoro-1-[2-[4-[(6-methoxy-2-methyl-4-quinolyl)oxy]-1-piperidyl]acetyl]pyrrolidine-2-carbonitrile]
